Data set [1] has as its system children with hyperactivity. In words: ADHD/hyperkinetic disorder in children vs. Piracetam (SNAP-IV, TOVA, fine motor). The format is in vivo, human. From the text:
Materials and methods of examination. The study included 57 children aged 6 to 9 years (40 boys and 17 girls) who attended day care centers and elementary schools of secondary schools.
• 1. The presence of clinical signs of hyperactivity that meet the criteria of ICD-10 (F 90); 2. Age-6-9 years; • 3. Intellectual indicators are not lower than the average on the Wechsler scale (more than 90 points).
Children with behavioral disorders due to other mental disorders were excluded from the study. For 2 months, the main group of children (n=30) with clinical signs of GH received monotherapy for the claimed medicament in 2 tablet 3 times a day. Children from the control group, similar to the main group by clinical signs, sex and age (n=27), were administered Piracetam in standard age doses for the same period.
The assessment of the severity of GH according to the criteria of attention disorder, hyperactivity and impulsivity in the examined children was carried out using the SNAP-IV scale (Swanson J., 1992). The psychophysiological test TOVA (The Test of Variables of Attention), allowed to assess the degree of attention disorders (omissions of significant stimuli) and impulsivity (false presses of a button), information processing speed (reaction time) in relation to standard indicators (Greenberg F M, Waldman I D, 1993). The child's fine motor skills were evaluated using tests from the battery of A. R. Luria (1973), selected by testing on these age groups with the development of criteria for scoring points Zh. M. Glozman, et al. (2006).
The results of the study. At the first stage of the study, using the SNAP-IV scale (Swanson J., 1992) in children of the main and control groups, an initial assessment of the severity of GH was carried out separately for each of the criteria (attention disorder, hyperactivity and impulsivity). Repeated similar assessment was carried out after a two-month course of therapy with the declared Drug in the main group and Piracetam therapy in the control group. The obtained indicators were compared with statistical processing (Table 28).
The computer-aided testing of TOVA (“Test of Variables of Attention”) was represented by three groups of tests, which allow judging the degree of attention disorder (missing significant stimuli), impulsivity (false pressing a button), information processing speed (reaction time). Baseline indicators of children with GH before treatment were compared with those of children of the main group (treatment with the claimed Drug) and indicators of children of the control group (Piracetam therapy) after a two-month course of treatment.

Data set [2] concerns male Wistar rats with hemorrhagic stroke. Put plainly: Hemorrhagic stroke (intracerebral hemorrhage) model in rats. The format is in vivo, rat. How it is done:
In the study, male Wistar rats (180-200 g) were used. […] Drug administration was started 1 hour after the pathology simulation and then daily, not earlier than 1 hour before the behavioral tests.
This method involves the double introduction of autologous blood into the specified structure of the brain of animals. The hemorrhagic stroke simulated in this way in rats in localization corresponds to intracerebral hemorrhages that occur in humans when the lenticularity arteries rupture. The total volume of hematoma in animals corresponds to approximately 40-50 ml in terms of human body weight.

As for `NC(=O)CN1CCCC1=O` [Piracetam], in data set [1] (2 months), the “children with increase in disinhibition, excitability” value is listed as 11.1%. In addition, the “children with sleep disturbance” value in data set [1] (2 months) was found to be 26%. Also, the “number of children with increase in disinhibition, excitability” value in data set [1] (2 months, n = 27) was 3. The “number of children with sleep disturbance” value in data set [1] (2 months, n = 27) is recorded as 7. In addition, the TOVA false alarm is listed as 12.6 ± 3.1% in data set [1] (First half of the test, after treatment, before 15.3 ± 2.2) and 20.5 ± 2.9% in data set [1] (The second half of the test, after treatment, before 29.2 ± 3.3). Also, the “TOVA Omissions of significant incentives” value in data set [1] (First half of the test, after treatment, before 19.1 ± 2.4) stood at 13.5 ± 1.4 %; in data set [1] (The second half of the test, after treatment, before 29.5 ± 3.3), 16.9 ± 2.9 %. The TOVA response time worked out at 745 ± 87 ms in data set [1] (First half of the test, after treatment, before 795 ± 103) and 665 ± 77 ms in data set [1] (The second half of the test, after treatment, before 741 ± 126). For the same compound, in data set [1] (after treatment, before 2.24 ± 0.21), the “Total mark of fine motor quality” value is 1.62 ± 0.16. In addition, the SNAP-IV impulsivity in data set [1] (after two-month treatment, before 2.40 ± 0.28) was 2.36 ± 0.20. In data set [1] (after two-month treatment, before 2.64 ± 0.29), this compound registered an SNAP-IV hyperactivity of 2.46 ± 0.11. Further, the “SNAP-IV disorder of attention” value in data set [1] (after two-month treatment, before 2.76 ± 0.31) was 2.52 ± 0.13.

As to `COCCOC(=O)C1=C(C)NC(C)=C(C(=O)OC(C)C)C1c1cccc([N+](=O)[O-])c1` (centres unmarked) [Nimodipine, nimodipine], in data set [2] (7th day compared with the 3rd day), the “decrease of the area of the hemorrhagic lesion” value is recorded as 16.7%. The “total time spent in the dark compartment, passive avoidance reaction, M (QI; Q3)” value in data set [2] (7th day of the study) was 171.00 (163.00; 175.00) s. Moreover, the “difference in motor preference indices” value in data set [2] (compared to negative test (Preparation 4)) is 24.22%.

These data come from patent US20250345433A1, “Drug For Treating Disorders Of An Organ Or Tissue Function And Diseases Accompanied By Such Disorders, And The Method For Obtaining It” (priority 2018, published 2025).
